Test results reported in patent US20230309556A1, “HERBICIDAL COMPOSITIONS RELATED TO OXALOACETATE AND METHODS AND USE THEREOF” (priority 2021, published 2023).

Test system: plants
Experiment: general screening of the herbicidal effect
Assay type: in vivo
Conditions: 10% w/w; compared with Roundup RTU and Bayer Advanced at 10% and 100% Label Rate; results shown in FIG. 1
Protocol: A general screening of the herbicidal effect of the following compounds was carried out: Bayer Advanced (100% Label Rate), Bayer Advanced (10% Lable Rate), UTC, Diethyl Oxalacetate (10% w/w), Roundup, rtu (10% Label Rate) and Roundup RTU (100% Label Rate).

CCOC(=O)CC(=O)C(=O)OCC [Diethyl Oxalacetate]
herbicidal activity: comparable to well-known herbicide products such as Roundup and Bayer Advanced
